{"source": "paper PMC7899551", "about": "“Phase 1 study of Z-endoxifen in patients with advanced gynecologic, desmoid, and hormone receptor-positive solid tumors” (Oncotarget, 2021)", "key": {"[1]": {"test": "Urinary excretion of Z-endoxifen over a 24-hour collection", "format": "in vivo, human", "description": "A 3-mL blood sample was collected in a K2 EDTA tube on day 1 of cycle 1 before drug administration and at the following times post-first dose: 0.5, 1, 2, 3, 4, 6, 8, and 24 hours. Samples were collected at the same time points on day 28 of cycle 1 for DL1-6 until a protocol amendment eliminated the requirement for these samples at the higher dose levels. Samples were wrapped in aluminum foil after collection to protect from light exposure. A 10-mL aliquot of urine was collected before agent administration on cycle 1 day 1, for 24 hours after dosing on day 1, and before drug administration on cycle 2 day 1; samples were refrigerated prior to analysis.\nPlasma and urine concentrations of Z- and E-endoxifen were measured using a validated, post-column fluorescence derivatization HPLC assay. Non-compartmental pharmacokinetic parameters were calculated using WinNonlin version 7.0 (Pharsight Corp., Mountainview, CA, USA). A 2 μM Cmax target was established for day 28 plasma concentration. The amount of Z-endoxifen excreted in urine was measured over a 24-hour collection period."}, "[2]": {"tested_on": "gynecologic tumors, desmoid tumors, hormone receptor-positive solid tumors", "test": "Clinical outcome (RECIST 1.1 response, cycles on study)", "format": "in vivo, human", "conditions": "for prolonged disease stabilization: desmoid", "description": "This study enrolled patients ≥ 18 years of age with gynecological tumors, desmoid tumors, histologically-documented HR+ (ER+/PR+, ER+/PR-, or ER-/PR+) breast cancer, or other solid tumors that were ER+ or PR+ by immunohistochemistry (any positive expression). […] All other patients must have progressed on at least one line of standard-of-care therapy.\nEye examinations were performed at baseline, every six months while on study, and if clinically indicated. CT scans were performed at baseline, and tumor response was assessed every 2 cycles (8 weeks; every 16 weeks for patients on study for more than 12 months) based on the Response Evaluation Criteria in Solid Tumors (RECIST) version 1.1 [39]. A confirmatory scan was performed after at least 4 weeks to confirm objective response."}, "ERα": {"biological_target": "T1, ERα (Homo sapiens, UniProt P03372)", "T1 construct": "from tissue; host or cells: patients' tumors in vivo, e.g. a pre-sacral soft tissue lesion of serous ovarian cancer", "T1 sequence (P03372 1-595)": "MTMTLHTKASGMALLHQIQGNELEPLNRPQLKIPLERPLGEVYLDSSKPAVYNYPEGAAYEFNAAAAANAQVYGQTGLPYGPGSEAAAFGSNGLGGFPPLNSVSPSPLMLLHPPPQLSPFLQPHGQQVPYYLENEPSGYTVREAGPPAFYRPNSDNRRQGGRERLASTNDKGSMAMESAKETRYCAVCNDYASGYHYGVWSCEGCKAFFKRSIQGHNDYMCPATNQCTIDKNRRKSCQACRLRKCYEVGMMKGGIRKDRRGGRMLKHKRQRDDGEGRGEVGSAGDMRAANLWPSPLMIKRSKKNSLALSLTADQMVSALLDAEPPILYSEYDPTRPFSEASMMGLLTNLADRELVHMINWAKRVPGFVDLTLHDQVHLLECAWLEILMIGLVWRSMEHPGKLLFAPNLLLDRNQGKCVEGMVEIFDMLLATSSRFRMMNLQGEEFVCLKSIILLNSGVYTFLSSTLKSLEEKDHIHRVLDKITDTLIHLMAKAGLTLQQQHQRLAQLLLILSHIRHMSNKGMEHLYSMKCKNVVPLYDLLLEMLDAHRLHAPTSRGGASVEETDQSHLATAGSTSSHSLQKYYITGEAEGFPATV", "test": "18F-FES PET/CT imaging (blocking estrogen receptor binding)", "format": "in vivo", "conditions": "after 1–5 days of oral treatment", "description": "The pharmacodynamic effect of Z-endoxifen, blocking estrogen receptor binding, was assessed by ^18F-FES PET/CT imaging. […] Twenty patients in this trial agreed to be screened by ^18F-FES PET/CT imaging to assess ER status. Ten patients who were positive prior to treatment were re-imaged from 1 to 5 days after treatment initiation. We present here images taken after 3 days of treatment from a patient with serous ovarian cancer whose imaging has not previously been reported (patient 40, DL8, Figure 2). […] This patient developed a bowel obstruction during cycle 1 attributed to their disease and chose to come off study. Other images from patients in this trial have been previously reported.\nThe uptake of ^18F-FES was measured using PET/CT imaging in patients enrolled in the present trial before and after 1–5 days of treatment with oral Z-endoxifen HCl as previously described. Five additional patients were scanned following the publication of the imaging approach. The images presented here are from one of these 5 patients."}, "[3]": {"tested_on": "ER+ metastatic breast cancer", "design": "method as in PMID 28854070", "conditions": "cited from earlier work"}, "[4]": {"conditions": "patient 7, fallopian tube cancer"}}, "note": "“Also recorded” adds a separate entry of the source."}
{"smiles": "CC/C(=C(\\c1ccc(O)cc1)c1ccc(OCCNC)cc1)c1ccccc1", "note": "[Z-endoxifen]", "values": [{"measurement": "amount excreted in the urine", "setting": "[1]", "value": "< 0.26 % of dose"}, {"measurement": "mean number of cycles completed", "setting": "[2]; 3 ER+/PR- breast cancer patients", "value": "3.0 ± 2.6", "unit": "cycles"}, {"measurement": "mean number of cycles completed", "setting": "[2]; 6 ER+/PR+ breast cancer patients", "value": "6.7 ± 4.4", "unit": "cycles"}, {"measurement": "disease stabilizations of ≥ 6 cycles", "setting": "[2]; 20 evaluable patients with gynecologic tumors (patients 20, 30, 31)", "value": 3, "unit": "patients"}, {"measurement": "partial responses", "setting": "[2]; 34 evaluable patients", "value": "Three patients had partial responses; also recorded: Three patients in this study experienced partial responses"}, {"measurement": "patients with stable disease ≥ 6 cycles", "setting": "[2]; 34 evaluable patients", "value": 8, "unit": "patients"}, {"measurement": "treatment cycles on study, average", "setting": "[2]; 34 evaluable patients", "value": 7.2, "unit": "cycles"}, {"measurement": "treatment cycles on study, median", "setting": "[2]; 34 evaluable patients", "value": 4, "unit": "cycles"}, {"measurement": "treatment cycles on study, range", "setting": "[2]; 34 evaluable patients", "value": "1–62 cycles"}, {"measurement": "Clinical Benefit (partial response or stable disease for at least 6 cycles)", "setting": "[2]; Breast cancer (n = 9)", "value": 4, "unit": "patients"}, {"measurement": "CBR (partial response or stable disease ≥ 6 cycles)", "setting": "[2]; DL1 to DL5, 20 to 140 mg daily, 3/16 patients", "value": 18.8, "unit": "%"}, {"measurement": "CBR (partial response or stable disease ≥ 6 cycles)", "setting": "[2]; DL6 to DL8, 200 to 360 mg daily, 8/18 patients", "value": 44.4, "unit": "%"}, {"measurement": "Clinical Benefit (partial response or stable disease for at least 6 cycles)", "setting": "[2]; Desmoid (n = 4)", "value": 3, "unit": "patients"}, {"measurement": "mean cycles completed on study", "setting": "[2]; ER+ breast cancer", "value": "5.1 ± 4.4", "unit": "cycles"}, {"measurement": "mean cycles on study", "setting": "[2]; ER+ ovarian cancer, 4 patients", "value": "4.0 ± 4.0", "unit": "cycles"}, {"measurement": "Clinical Benefit (partial response or stable disease for at least 6 cycles)", "setting": "[2]; Fallopian tube cancer (n = 2)", "value": 1, "unit": "patients"}, {"measurement": "Clinical Benefit (partial response or stable disease for at least 6 cycles)", "setting": "[2]; Granulosa cell ovarian (n = 2)", "value": 0, "unit": "patients"}, {"measurement": "Clinical Benefit (partial response or stable disease for at least 6 cycles)", "setting": "[2]; Ovarian cancer (n = 9)", "value": 2, "unit": "patients"}, {"measurement": "Clinical Benefit (partial response or stable disease for at least 6 cycles)", "setting": "[2]; Total of Supplementary Table 1 (endometrial patient 31 not included)", "value": 10, "unit": "patients"}, {"measurement": "overall CBR (partial response or stable disease ≥ 6 cycles)", "setting": "[2]; all dose levels", "value": 32.5, "unit": "%"}, {"measurement": "CBR", "setting": "[2]; hormone receptor-positive breast cancer, 4/9 patients", "value": 44, "unit": "%"}, {"measurement": "clinical response", "setting": "[2]; [4]", "value": "partial response"}, {"measurement": "cycles on study", "setting": "[2]; [4]", "value": 14, "unit": "cycles"}, {"measurement": "clinical response", "setting": "[2]; patient 23, desmoid fibromatosis, prior progression on tamoxifen", "value": "partial response"}, {"measurement": "prolonged disease stabilization", "setting": "[2]; patient 28 (DL7)", "value": 11, "unit": "cycles"}, {"measurement": "stable disease duration", "setting": "[2]; patient 31, endometrial cancer", "value": 7, "unit": "cycles"}, {"measurement": "clinical response", "setting": "[2]; patient 33 (DL8), breast cancer", "value": "partial response"}, {"measurement": "prolonged disease stabilization", "setting": "[2]; patient 35 (DL8), prior progression on tamoxifen", "value": 24, "unit": "cycles"}, {"measurement": "stable disease duration", "setting": "[2]; patients 3, 10, and 21 (DL1, DL3, DL6), breast cancer", "value": "≥ 6", "unit": "cycles"}, {"measurement": "CBR", "setting": "[2]; patients with desmoid tumors, 3/4 patients", "value": 75, "unit": "%"}, {"measurement": "CBR", "setting": "[2]; patients with gynecologic malignancies, 4/20 patients", "value": 20, "unit": "%"}, {"measurement": "mean cycles on study", "setting": "[2]; undetermined ER status ovarian cancer, n = 5", "value": "2.0 ± 1.2", "unit": "cycles"}, {"measurement": "18F-FES tracer uptake on PET/CT", "setting": "ERα", "value": "FES tracer uptake could be reduced"}, {"measurement": "Plasma concentration on day 1", "setting": "[3]; 160 mg dose, 38 patients with ER+ metastatic breast cancer", "value": 333, "unit": "ng/mL"}, {"measurement": "overall CBR", "setting": "[3]; previous trial, highest dose 160 mg/day", "value": 26.3, "unit": "%"}]}
